Laboratory results taken from ChEMBL document CHEMBL1909046, “DrugMatrix in vitro pharmacology data”.

Assays:
[1] = DRUGMATRIX: Phorbol Ester radioligand binding (ligand: [3H] PDBu); format: cell membranes, Mus musculus, ICR, Brain, Membrane; conditions: Not Active = under 50% inhibition at 10 µM
[2] = DRUGMATRIX: Imidazoline I2, Central radioligand binding (ligand: [3H] Idazoxan); format: cell membranes, Rattus norvegicus, Wistar, Cerebral cortex, Membrane; conditions: Not Active = under 50% inhibition at 10 µM
[3] = target: T1, Muscarinic acetylcholine receptor M2 (Homo sapiens, UniProt P08172); format: cell membranes, CHO-K1, Membrane; further: in other assays of this panel Not Active means under 50% inhibition at 10 µM
T1 sequence (P08172 whole entry): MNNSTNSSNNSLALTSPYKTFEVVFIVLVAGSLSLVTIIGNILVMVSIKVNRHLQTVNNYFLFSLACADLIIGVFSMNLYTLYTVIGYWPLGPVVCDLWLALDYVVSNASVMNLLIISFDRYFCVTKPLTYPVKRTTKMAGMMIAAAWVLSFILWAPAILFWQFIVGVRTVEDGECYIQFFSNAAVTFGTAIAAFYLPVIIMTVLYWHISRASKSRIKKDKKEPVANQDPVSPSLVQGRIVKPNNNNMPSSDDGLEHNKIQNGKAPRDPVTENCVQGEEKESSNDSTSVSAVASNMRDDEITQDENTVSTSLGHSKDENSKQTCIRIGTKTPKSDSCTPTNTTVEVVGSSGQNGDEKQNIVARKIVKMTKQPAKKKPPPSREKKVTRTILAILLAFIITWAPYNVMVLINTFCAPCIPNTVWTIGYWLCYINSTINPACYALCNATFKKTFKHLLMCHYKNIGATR

Thromboxane-A synthase = target: T2, Thromboxane-A synthase (Homo sapiens, UniProt P24557); experiment: biochemical; format: tissue-based, Platelet;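 further: enzyme inhibition assay with PGH2 supplied as substrate; in other assays of this panel Not Active means under 50% inhibition at 10 µM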
T2 sequence (P24557 whole entry): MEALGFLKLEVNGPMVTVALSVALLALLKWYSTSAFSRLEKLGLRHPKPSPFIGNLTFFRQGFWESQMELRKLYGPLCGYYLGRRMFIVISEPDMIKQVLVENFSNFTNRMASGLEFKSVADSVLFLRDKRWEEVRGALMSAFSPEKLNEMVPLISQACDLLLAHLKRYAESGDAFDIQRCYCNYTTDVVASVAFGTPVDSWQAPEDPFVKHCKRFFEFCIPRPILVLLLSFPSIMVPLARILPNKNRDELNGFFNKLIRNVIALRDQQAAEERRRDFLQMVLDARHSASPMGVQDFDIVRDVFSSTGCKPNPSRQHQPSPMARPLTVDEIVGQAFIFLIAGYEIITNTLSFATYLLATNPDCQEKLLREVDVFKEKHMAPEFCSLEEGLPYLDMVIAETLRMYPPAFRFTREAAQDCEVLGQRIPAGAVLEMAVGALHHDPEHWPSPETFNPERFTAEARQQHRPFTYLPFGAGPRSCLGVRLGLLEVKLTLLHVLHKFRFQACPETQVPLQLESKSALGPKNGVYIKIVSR

[4] = target: 5-hydroxytryptamine receptor 1B (Rattus norvegicus, UniProt P28564); format: cell membranes, Wistar, Cerebral cortex, Membrane; conditions: for Ki: read-out: Ki; on all read-outs here: in other assays of this panel Not Active means under 50% inhibition at 10 µM
[5] = target: Mitogen-activated protein kinase 14 (Homo sapiens, UniProt Q16539); parameters: species or system Escherichia coli;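 further: inhibition of p38alpha enzyme activity in a biochemical kinase assay, with myelin basic protein serving as substrate; in other assays of this panel Not Active means under 50% inhibition at 10 µM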
Mitogen-activated protein kinase 14, sequence (Q16539 whole entry): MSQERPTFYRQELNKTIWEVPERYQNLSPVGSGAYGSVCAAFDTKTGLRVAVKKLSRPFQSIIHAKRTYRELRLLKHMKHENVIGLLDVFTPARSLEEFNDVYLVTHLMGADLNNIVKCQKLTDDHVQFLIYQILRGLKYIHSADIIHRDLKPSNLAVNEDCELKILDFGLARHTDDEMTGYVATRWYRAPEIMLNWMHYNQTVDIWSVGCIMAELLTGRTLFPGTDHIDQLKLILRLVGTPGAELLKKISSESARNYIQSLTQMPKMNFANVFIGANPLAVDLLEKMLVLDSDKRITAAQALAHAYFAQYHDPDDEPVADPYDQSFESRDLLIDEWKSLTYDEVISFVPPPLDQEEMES

5-hydroxytryptamine receptor 1B, sequence (P28564 whole entry): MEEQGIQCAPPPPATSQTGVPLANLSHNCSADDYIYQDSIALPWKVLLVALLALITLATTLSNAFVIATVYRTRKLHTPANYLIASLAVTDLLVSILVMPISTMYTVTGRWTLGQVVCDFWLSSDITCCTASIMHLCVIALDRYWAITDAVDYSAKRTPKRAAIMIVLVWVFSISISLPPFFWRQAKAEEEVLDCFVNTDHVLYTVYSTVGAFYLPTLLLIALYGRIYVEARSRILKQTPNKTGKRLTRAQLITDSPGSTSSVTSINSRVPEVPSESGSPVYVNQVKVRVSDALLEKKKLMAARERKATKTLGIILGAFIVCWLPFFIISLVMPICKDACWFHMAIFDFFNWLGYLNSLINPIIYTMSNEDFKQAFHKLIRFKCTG

SMILES | IC50 [1] | Ki [1] | IC50 [2] | Ki [2] | IC50 ([3]; cho-k1) | IC50 (Thromboxane-A synthase; read-out: IC50) [µM] | IC50 [4] | IC50 [5] | IC50 (Thromboxane-A synthase; platelet) | IC50 ([4]; read-out: IC50) [µM] | Ki [4] [µM] | IC50 ([2]; read-out: IC50) [µM] | Ki ([2]; read-out: Ki) [µM] | IC50 ([3]; read-out: IC50) [µM] | Ki ([3]; read-out: Ki) [µM]
CC(C)(C)NC(=O)[C@@H]1C[C@@H]2CCCC[C@@H]2CN1C[C@@H](O)[C@H](Cc1ccccc1)NC(=O)[C@H](CC(N)=O)NC(=O)c1ccc2ccccc2n1 | Not Active | Not Active | Not Active | Not Active | Not Active | 2.18 | Not Active | Not Active | – | – | – | – | – | – | –
CC(=O)[C@@]1(O)CC[C@H]2[C@@H]3C[C@H](C)C4=CC(=O)CC[C@]4(C)[C@H]3CC[C@@]21C | Not Active | Not Active | Not Active | Not Active | Not Active | – | Not Active | Not Active | Not Active | – | – | – | – | – | –
N[C@@H](Cc1ccc(N(CCCl)CCCl)cc1)C(=O)O | Not Active | Not Active | Not Active | Not Active | Not Active | – | Not Active | Not Active | Not Active | – | – | – | – | – | –
CCCCc1oc2ccccc2c1C(=O)c1cc(I)c(OCCN(CC)CC)c(I)c1 [AMIODARONE] | – | – | – | – | – | – | – | Not Active | Not Active | 86.2 | 39.2 | – | – | – | –
OCCN(CCO)c1nc(N2CCCCC2)c2nc(N(CCO)CCO)nc(N3CCCCC3)c2n1 [DIPYRIDAMOLE] | Not Active | Not Active | Not Active | Not Active | Not Active | – | Not Active | Not Active | Not Active | – | – | – | – | – | –
Cc1oncc1C(=O)Nc1ccc(C(F)(F)F)cc1 [LEFLUNOMIDE] | Not Active | Not Active | Not Active | Not Active | Not Active | – | Not Active | Not Active | Not Active | – | – | – | – | – | –
c1ccc([C@H]2CN3CCSC3=N2)cc1 [LEVAMISOLE] | Not Active | Not Active | Not Active | Not Active | Not Active | – | Not Active | Not Active | Not Active | – | – | – | – | – | –
N[C@@H](Cc1ccc(O)c(O)c1)C(=O)O [LEVODOPA] | Not Active | Not Active | Not Active | Not Active | Not Active | – | Not Active | Not Active | Not Active | – | – | – | – | – | –
N[C@@H](Cc1cc(I)c(Oc2ccc(O)c(I)c2)c(I)c1)C(=O)O [LIOTHYRONINE] | – | – | – | – | Not Active | – | Not Active | Not Active | Not Active | – | – | – | – | – | –
O=NN(CCCl)C(=O)NC1CCCCC1 [LOMUSTINE] | Not Active | Not Active | Not Active | Not Active | Not Active | – | Not Active | Not Active | Not Active | – | – | – | – | – | –
CCOC(=O)N1CCC(=C2c3ccc(Cl)cc3CCc3cccnc32)CC1 [LORATADINE] | Not Active | Not Active | Not Active | Not Active | Not Active | – | Not Active | Not Active | Not Active | – | – | – | – | – | –
Cn1ccnc1S [METHIMAZOLE] | Not Active | Not Active | Not Active | Not Active | Not Active | – | Not Active | Not Active | Not Active | – | – | – | – | – | –
CC[C@@H](CO)NC(=O)[C@@H]1C=C2c3cccc4[nH]cc(c34)C[C@H]2N(C)C1 [METHYLERGONOVINE] | Not Active | Not Active | – | – | Not Active | – | – | Not Active | Not Active | 0.015 | 0.00926 | 2.93 | 1.96 | – | –
COc1nc(C)nc(Cl)c1NC1=NCCN1 [MOXONIDINE] | Not Active | Not Active | – | – | Not Active | – | Not Active | Not Active | Not Active | – | – | 1.48 | 0.984 | – | –
COc1c(C)c2c(c(O)c1C/C=C(\C)CCC(=O)O)C(=O)OC2 [MYCOPHENOLIC ACID] | Not Active | Not Active | Not Active | Not Active | Not Active | – | Not Active | Not Active | Not Active | – | – | – | – | – | –
O=c1ncn2nc(Sc3ccc(F)cc3F)ccc2c1-c1c(Cl)cccc1Cl [NEFLAMAPIMOD] | Not Active | Not Active | Not Active | Not Active | Not Active | – | Not Active | – | Not Active | – | – | – | – | – | –
CN1CCN(CCCN2c3ccccc3Sc3ccc(Cl)cc32)CC1 [PROCHLORPERAZINE] | – | – | – | – | – | – | – | Not Active | Not Active | 2.65 | 1.2 | – | – | – | –
CO[C@H]1/C=C/O[C@@]2(C)Oc3c(C)c(O)c4c(O)c(c(/C=N/N5CCN(C)CC5)c(O)c4c3C2=O)NC(=O)/C(C)=C\C=C\[C@H](C)[C@H](O)[C@@H](C)[C@@H](O)[C@@H](C)[C@H](OC(C)=O)[C@@H]1C [RIFAMPIN] | Not Active | Not Active | Not Active | Not Active | Not Active | – | Not Active | Not Active | Not Active | – | – | – | – | – | –
Nc1nc2ccc(OC(F)(F)F)cc2s1 [RILUZOLE] | Not Active | Not Active | Not Active | Not Active | Not Active | – | Not Active | Not Active | Not Active | – | – | – | – | – | –
Cc1nc2n(c(=O)c1CCN1CCC(c3noc4cc(F)ccc34)CC1)CCCC2 [RISPERIDONE] | – | – | – | – | Not Active | – | Not Active | Not Active | Not Active | – | – | – | – | – | –
C=CCC1(C(C)CCC)C(=O)NC(=O)NC1=O (stereo not given) [SECOBARBITAL] | Not Active | Not Active | Not Active | Not Active | Not Active | – | Not Active | Not Active | Not Active | – | – | – | – | – | –
C[C@@H]1CN(c2c(F)c(N)c3c(=O)c(C(=O)O)cn(C4CC4)c3c2F)C[C@H](C)N1 [SPARFLOXACIN] | Not Active | Not Active | Not Active | Not Active | Not Active | – | Not Active | Not Active | Not Active | – | – | – | – | – | –
Cc1noc(NS(=O)(=O)c2ccc(N)cc2)c1C [SULFISOXAZOLE] | Not Active | Not Active | Not Active | Not Active | Not Active | – | Not Active | Not Active | Not Active | – | – | – | – | – | –
CSc1ccc(/C=C2/C(C)=C(CC(=O)O)c3cc(F)ccc32)cc1 [SULINDAC SULFIDE] | Not Active | Not Active | Not Active | Not Active | Not Active | – | Not Active | Not Active | Not Active | – | – | – | – | – | –
Nc1c2c(nc3ccccc13)CCCC2 [TACRINE] | Not Active | Not Active | Not Active | Not Active | Not Active | – | Not Active | Not Active | Not Active | – | – | – | – | – | –
CC/C(=C(\c1ccccc1)c1ccc(OCCN(C)C)cc1)c1ccccc1 [TAMOXIFEN] | – | – | – | – | – | 0.916 | Not Active | Not Active | – | – | – | – | – | – | –
CC(C)N1CCN(c2ccc(OCC3COC(Cn4cncn4)(c4ccc(Cl)cc4Cl)O3)cc2)CC1 (stereo not given) [TERCONAZOLE] | Not Active | Not Active | – | – | – | – | – | Not Active | Not Active | 89.9 | 40.9 | 2.23 | 1.48 | 12.9 | 4.59
Nc1nc2nc[nH]c2c(=S)[nH]1 [THIOGUANINE] | Not Active | Not Active | Not Active | Not Active | Not Active | – | Not Active | Not Active | Not Active | – | – | – | – | – | –
